Measured values: patent publication US9765018B2, “IDO inhibitors” (BRISTOL-MYERS SQUIBB COMPANY, priority 2013, dated 2017)
Each block holds one molecule with its values, some of them ahead of it.

Target: IDO (Homo sapiens (Human), UniProt P14902)
Assay: LLE_IDO_ABS_DR (IDO assay, method not described)

Sequence of IDO (P14902 whole entry): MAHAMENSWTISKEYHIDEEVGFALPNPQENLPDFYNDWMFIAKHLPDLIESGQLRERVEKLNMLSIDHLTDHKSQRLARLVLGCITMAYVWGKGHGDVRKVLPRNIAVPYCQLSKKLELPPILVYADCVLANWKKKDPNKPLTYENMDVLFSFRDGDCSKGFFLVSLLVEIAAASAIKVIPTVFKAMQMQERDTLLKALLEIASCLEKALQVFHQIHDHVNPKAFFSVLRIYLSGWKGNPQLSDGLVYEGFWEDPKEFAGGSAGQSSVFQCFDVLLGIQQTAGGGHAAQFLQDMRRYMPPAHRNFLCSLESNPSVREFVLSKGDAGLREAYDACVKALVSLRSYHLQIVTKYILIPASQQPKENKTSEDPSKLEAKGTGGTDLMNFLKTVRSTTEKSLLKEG

- IC50: 30 nM
Structure (SMILES): CCCC(CCC)Oc1ccc(-c2ccccc2-c2nn[nH]n2)cc1NC(=O)Nc1ccc(C)cc1 [Example 13, 1-(4-(Heptan-4-yloxy)-2′-(1H-tetrazol-5-yl)-[1,1′-biphenyl]-3-yl)-3-(p-tolyl)urea]

- IC50: 380 nM
Structure (SMILES): CCCC(CCC)Oc1ccc(-c2cc(F)ccc2C(=O)O)cc1NC(=O)Nc1ccc(C)cc1 [Example 15, 5-Fluoro-4′-(heptan-4-yloxy)-3′-(3-(p-tolyl)ureido)-[1,1′-biphenyl]-2-carboxylic acid]

- IC50: 150 nM
Structure (SMILES): C/C=C/Cc1cc(-c2cc(F)ccc2C(=O)O)cc(NC(=O)Nc2ccc(C)cc2)c1OCCC [Example 21, (E)-3′-(But-2-en-1-yl)-5-fluoro-4′-propoxy-5′-(3-(p-tolyl)ureido)-[1,1′-biphenyl]-2-carboxylic acid]

- IC50: 130 nM
Structure (SMILES): CCCCc1cc(-c2ccccc2C(=O)O)cc(NC(=O)Nc2ccc(C)cc2)c1OCCC [Example 23, 3′-Butyl-4′-propoxy-5′-(3-(p-tolyl)ureido)-[1,1′-biphenyl]-2-carboxylic acid]

- IC50: 80 nM
Structure (SMILES): CCCCc1cc(-c2cc(F)ccc2C(=O)O)cc(NC(=O)Nc2ccc(C)cc2)c1OCCC [Example 24]

- IC50: 160 nM
Structure (SMILES): C/C=C/Cc1cc(-c2ccccc2-c2nnn[nH]2)cc(NC(=O)Nc2ccc(C)cc2)c1OCc1ccccc1 [Example 25, (E)-1-(4-(Benzyloxy)-5-(but-2-en-1-yl)-2′-(1H-tetrazol-5-yl)-[1,1′-biphenyl]-3-yl)-3-(p-tolyl)urea]

- IC50: 650 nM
Structure (SMILES): C/C=C/Cc1cc(-c2ccccc2C(=O)O)cc(NC(=O)Nc2ccc(C)cc2)c1OCc1ccccc1 [Example 26, (E)-4′-(Benzyloxy)-3′-(but-2-en-1-yl)-5′-(3-(p-tolyl)ureido)-[1,1′-biphenyl]-2-carboxylic acid]

- IC50: 250 nM
Structure (SMILES): Cc1ccc(NC(=O)Nc2cc(-c3ccccc3-c3nnn[nH]3)ccc2OCc2ccccc2)cc1 [Example 28, 1-(4-(Benzyloxy)-2′-(1H-tetrazol-5-yl)-[1,1′-biphenyl]-3-yl)-3-(p-tolyl)urea]

- IC50: 170 nM
Structure (SMILES): CCCOc1c(C/C=C/c2ccccc2)cc(-c2ccccc2-c2nnn[nH]2)cc1NC(=O)Nc1ccc(C)cc1 [Example 34, (E)-1-(5-Cinnamyl-4-propoxy-2′-(1H-tetrazol-5-yl)biphenyl-3-yl)-3-p-tolylurea]

- IC50: 100 nM
Structure (SMILES): CCCOc1c(C/C=C/c2ccccc2)cc(-c2ccccc2C(=O)O)cc1NC(=O)Nc1ccc(C)cc1 [Example 35, 3′-Cinnamyl-4′-propoxy-5′-(3-p-tolylureido)biphenyl-2-carboxylic acid]

- IC50: 130 nM
Structure (SMILES): CCCCc1cc(-c2cc(F)ccc2C(=O)O)cc(NC(=O)Nc2ccc(C)cc2)c1OCc1ccccc1 [Example 40, 4′-(Benzyloxy)-3′-butyl-5-fluoro-5′-(3-p-tolylureido)biphenyl-2-carboxylic acid]

- IC50: 1490 nM
Structure (SMILES): CC(C)(C)c1ccccc1Oc1ccc(-c2ccc(Cl)cc2-c2nnn[nH]2)cc1NC(=O)Nc1ccccc1Cl [Example 198, 1-(4-(2-tert-butylphenoxy)-4′-chloro-2′-(1H-tetrazol-5-yl)biphenyl-3-yl)-3-(2-chlorophenyl)urea]

- IC50: 90 nM
Structure (SMILES): Cc1ccc(NC(=O)Nc2cc(-c3ccc(Cl)cc3-c3nnn[nH]3)ccc2Oc2ccccc2C(C)(C)C)cc1 [Example 199, 1-(4-(2-tert-butylphenoxy)-4′-chloro-2′-(1H-tetrazol-5-yl)biphenyl-3-yl)-3-p-tolylurea]

- IC50: 690 nM
Structure (SMILES): CCC(Oc1ccc(-c2cc(F)ccc2C(=O)O)cc1NC(=O)Nc1ccc(C)cc1)c1ccccc1 (centres unmarked) [Example 268]

- IC50: 1100 nM
Structure (SMILES): CCCCC(Oc1ccc(-c2cc(F)ccc2C(=O)O)cc1NC(=O)Nc1ccc(C)cc1)C1CCCCC1 (centres unmarked) [Example 269]

- IC50: 20 nM
Structure (SMILES): CCC[C@@H](Oc1ccc(-c2cc(F)ccc2C(=O)O)cc1NC(=O)Nc1ccc(C)cc1)c1ccccc1 [Example 270]

- IC50: 30 nM
Structure (SMILES): CCC(Oc1ccc(-c2ccccc2-c2nnn[nH]2)cc1NC(=O)Nc1ccc(C)cc1)c1ccccc1 (centres unmarked) [Example 271]

- IC50: 100 nM
Structure (SMILES): CCCCC(Oc1ccc(-c2ccccc2-c2nnn[nH]2)cc1NC(=O)Nc1ccc(C)cc1)C1CCCCC1 (centres unmarked) [Example 272]

- IC50: 1380 nM
Structure (SMILES): O=C(Nc1ccccc1F)Nc1cc(-c2cc(F)ccc2C(=O)O)cc(C/C=C/C(F)(F)F)c1OCCC(F)(F)F [Example 282]

- IC50: 470 nM
Structure (SMILES): CCCC(CCC)Oc1c(Br)cc(-c2ccccc2-c2nnn[nH]2)cc1NC(=O)Nc1ccc(C)cc1 [Example 286]

Second part, the molecule before the results:

Structure (SMILES): Cc1ccc(NC(=O)Nc2cc(-c3ccccc3-c3nn[nH]n3)ccc2OC(C(C)C)C(C)C)cc1 [Example 9, 1-(4-((2,4-Dimethylpentan-3-yl)oxy)-2′-(1H-tetrazol-5-yl)-[1,1′-biphenyl]-3-yl)-3-(p-tolyl)urea]
- IC50: 30 nM

Structure (SMILES): Cc1ccc(NC(=O)Nc2cc(-c3ccccc3C(=O)O)ccc2OC(C(C)C)C(C)C)cc1 [Example 10, 4′-((2,4-Dimethylpentan-3-yl)oxy)-3′-(3-(p-tolyl)ureido)-[1,1′-biphenyl]-2-carboxylic acid]
- IC50: 720 nM

Structure (SMILES): CC(C)C(Oc1ccc(-c2ccccc2-c2nnn[nH]2)cc1NC(=O)Nc1ccccc1F)C(C)C [Example 11, 1-(4-((2,4-Dimethylpentan-3-yl)oxy)-2′-(1H-tetrazol-5-yl)-[1,1′-biphenyl]-3-yl)-3-(2-fluorophenyl)urea]
- IC50: 160 nM

Structure (SMILES): COc1ccc(-c2ccc(OC(C(C)C)C(C)C)c(NC(=O)Nc3ccccc3F)c2)cc1C(=O)O [Example 12, 4′-((2,4-Dimethylpentan-3-yl)oxy)-3′-(3-(2-fluorophenyl)ureido)-4-methoxy-[1,1′-biphenyl]-3-carboxylic acid]
- IC50: 820 nM

Structure (SMILES): CCCC(CCC)Oc1ccc(-c2ccccc2C(=O)O)cc1NC(=O)Nc1ccc(C)cc1 [Example 14, 4′-(Heptan-4-yloxy)-3′-(3-(p-tolyl)ureido)-[1,1′-biphenyl]-2-carboxylic acid]
- IC50: 600 nM

Structure (SMILES): CCCOc1c(CCC)cc(-c2ccccc2C(=O)O)cc1NC(=O)Nc1ccc(C)cc1 [Example 17, 4′-Propoxy-3′-propyl-5′-(3-(p-tolyl)ureido)-[1,1′-biphenyl]-2-carboxylic acid]
- IC50: 200 nM

Structure (SMILES): CCCOc1c(CCC)cc(-c2cc(F)ccc2C(=O)O)cc1NC(=O)Nc1ccc(C)cc1 [Example 18, 5-Fluoro-4′-propoxy-3′-propyl-5′-(3-(p-tolyl)ureido)-[1,1′-biphenyl]-2-carboxylic acid]
- IC50: 310 nM

Structure (SMILES): C/C=C/Cc1cc(-c2ccccc2C(=O)O)cc(NC(=O)Nc2ccc(C)cc2)c1OCCC [Example 20, (E)-3′-(But-2-en-1-yl)-4′-propoxy-5′-(3-(p-tolyl)ureido)-[1,1′-biphenyl]-2-carboxylic acid]
- IC50: 170 nM

Structure (SMILES): C/C=C/Cc1cc(-c2cc(F)ccc2C(=O)O)cc(NC(=O)Nc2ccc(C)cc2)c1OCc1ccccc1 [Example 27, (E)-4′-(Benzyloxy)-3′-(but-2-en-1-yl)-5-fluoro-5′-(3-(p-tolyl)ureido)-[1,1′-biphenyl]-2-carboxylic acid]
- IC50: 850 nM

Structure (SMILES): CCCOc1c(/C=C/C=C(F)F)cc(-c2cc(F)ccc2C(=O)O)cc1NC(=O)Nc1ccc(C)cc1 [Example 33, (E)-3′-(4,4-Difluorobuta-1,3-dien-1-yl)-5-fluoro-4′-propoxy-5′-(3-(p-tolyl)ureido)-[1,1′-biphenyl]-2-carboxylic acid]
- IC50: 110 nM

Structure (SMILES): CCCOc1c(CCCc2ccccc2)cc(-c2ccccc2-c2nnn[nH]2)cc1NC(=O)Nc1ccc(C)cc1 [Example 37, 1-(5-(3-Phenylpropyl)-4-propoxy-2′-(1H-tetrazol-5-yl)biphenyl-3-yl)-3-p-tolylurea]
- IC50: 130 nM

Structure (SMILES): CCCOc1c(C/C=C/c2ccccc2)cc(-c2ccccc2-c2nnn[nH]2)cc1NC(=O)Nc1ccccc1F [Example 38, (E)-1-(5-Cinnamyl-4-propoxy-2′-(1H-tetrazol-5-yl)biphenyl-3-yl)-3-(2-fluorophenyl)urea]
- IC50: 210 nM

Structure (SMILES): CCCOc1c(CCCc2ccccc2)cc(-c2ccccc2-c2nnn[nH]2)cc1NC(=O)Nc1ccccc1F [Example 39, 1-(2-Fluorophenyl)-3-(5-(3-phenylpropyl)-4-propoxy-2′-(1H-tetrazol-5-yl)biphenyl-3-yl)urea]
- IC50: 50 nM

Structure (SMILES): CC(C)(C)c1ccccc1Oc1ccc(-c2ccc(F)cc2-c2nnn[nH]2)cc1NC(=O)Nc1ccccc1Cl [Example 195, 1-(4-(2-tert-butylphenoxy)-4′-fluoro-2′-(1H-tetrazol-5-yl)biphenyl-3-yl)-3-(2-chlorophenyl)urea]
- IC50: 1860 nM

Structure (SMILES): Cc1ccc(NC(=O)Nc2cc(-c3ccc(F)cc3-c3nnn[nH]3)ccc2Oc2ccccc2C(C)(C)C)cc1 [Example 197, 1-(4-(2-tert-butylphenoxy)-4′-fluoro-2′-(1H-tetrazol-5-yl)biphenyl-3-yl)-3-p-tolylurea]
- IC50: 200 nM

Structure (SMILES): CC(C)(C)c1ccccc1Oc1ccc(-c2cncc(C(=O)O)c2)cc1NC(=O)Nc1ccc(OC(F)(F)F)cc1 [Example 266, 5-(4-(2-tert-butylphenoxy)-3-(3-(4-(trifluoromethoxy)phenyl)ureido)phenyl)nicotinic acid]
- IC50: 2150 nM

Structure (SMILES): Cc1ccc(NC(=O)Nc2cc(-c3cc(F)ccc3C(=O)O)ccc2OC(CCC(F)(F)F)c2ccccc2Cl)cc1 (centres unmarked) [Example 267, 4′-(1-(2-Chlorophenyl)-4,4,4-trifluorobutoxy)-5-fluoro-3′-(3-(p-tolyl)ureido)-[1,1′-biphenyl]-2-carboxylic acid]
- IC50: 390 nM

Structure (SMILES): CCC[C@@H](Oc1ccc(-c2ccccc2-c2nnn[nH]2)cc1NC(=O)Nc1ccc(C)cc1)c1ccccc1 [Example 273]
- IC50: 40 nM

Structure (SMILES): CCC[C@H](Oc1ccc(-c2ccccc2-c2nnn[nH]2)cc1NC(=O)Nc1ccc(C)cc1)c1ccccc1 [Example 274]
- IC50: 3510 nM

Structure (SMILES): CCC[C@H](Oc1ccc(-c2cc(F)ccc2C(=O)O)cc1NC(=O)Nc1ccc(C)cc1)c1ccccc1 [Example 275]
- IC50: 1740 nM

Structure (SMILES): CCCOc1c(NC(=O)Nc2ccc(C3CC3)cc2)cc(-c2ccccc2-c2nnn[nH]2)cc1C1CC1 [Example 276, 1-(5-cyclopropyl-4-propoxy-2′-(1H-tetrazol-5-yl)-[1,1′-biphenyl]-3-yl)-3-(4-cyclopropylphenyl)urea]
- IC50: 690 nM

Structure (SMILES): O=C(Nc1ccc(F)cc1F)Nc1cc(-c2ccccc2-c2nnn[nH]2)cc(CC2CC2)c1OCC1CC1 [Example 277]
- IC50: 30 nM

Structure (SMILES): O=C(Nc1ccccc1F)Nc1cc(-c2cc(F)ccc2C(=O)O)cc(/C=C/C=C(F)F)c1OCCC(F)(F)F [Example 281]
- IC50: 820 nM

Structure (SMILES): CC/C=C/Cc1cc(-c2ccccc2-c2nnn[nH]2)cc(NC(=O)Nc2ccc(C)cc2)c1OCCC [Example 285]
- IC50: 140 nM
